From US20110009628A1, “Compounds and Compositions for Modulating Lipid Levels and Methods of Preparing Same” (priority 2009, published 2011)

What was measured:
Assay type in all cases: cell-based, human
[1] = tested on: intracellular triglyceride in HepG2 cells; test: Reduction of intracellular triglyceride in HepG2 cells (Example 8); details: B, compound dose ≦40 μM
Text: Berberine chloride was used for comparison. The amount of TG in untreated control cells was defined as 100% and the amounts of TG in compound-treated cells were divided to that value.

[2] = tested on: LDLR mRNA expression in HepG2 cells; test: LDLR mRNA expression in HepG2 cells, quantitative real-time RT-PCR (Example 7); details: dose less than or equal to 10 μM, 24 hours
Experimental: In yet another experiment, HepG2 cells were treated with various compounds for 24 hours at the indicated doses. Total RNA was isolated and 2 μg was used to generate cDNA in a reaction containing random primers and M-MLV at 37° C. for 1 hour in a volume of 25 μL. Real-time PCR was performed on the cDNA using MCEP REALPLEX 2 SYSTEM (Eppendorf) and Universal MasterMix (Applied Biosystems). Human LDLR and GAPDH Pre-Developed TaqMan Assay Reagents (Applied Biosystems) were used to assess the levels of mRNA expressions in HepG2. The levels of LDLR mRNA were normalized to that of GAPDH. Each RNA samples was assayed in triplicate. The abundance of LDLR mRNA in untreated cells was defined as 1, and the amounts of LDLR mRNA from compound-treated cells were plotted relative to that value in FIG. 2B. The data shown are mean±s.d.
Activities of some compounds of Formulas I, II and EE on LDLR mRNA expression were determined. HepG2 cells were treated with new compounds individually at a dose less than or equal to 10 μM for 24 hours. […] In these experiments, berberine chloride was included for comparison.

[3] = tested on: LDLR ligand uptake activity in HepG2 cells; test: DiI-LDL uptake in HepG2 cells (Example 6); details: 20 hours; also: key: +: slightly increased fluorescent intensity over control; ++: modestly increased fluorescent intensity over control; +++: strongly increased fluorescent intensity over control
Experimental: HepG2 cells (2×10^5 cells/well) in 24-well culture plates were treated with various compounds at indicated concentrations for 20 hours. The fluorescent 1.1′-dioctadecyl-3,3,3′,3′-tetramethylindocarbocyanin perchlorate (DiI-LDL) (Biomedical Technologies, Stoughton, Mass.) at a concentration of 2 μg/mL was added to cells at the end of treatment. After 4 hours, the medium was removed, cells were washed with cold PBS, and were examined immediately under a fluorescent microscope (Nikon) at 200× amplification. The fluorescent intensity in compound-treated cells was compared to that in untreated control cells. […] In these experiments berberine chloride was used for comparison.

Row | SMILES | Activity on reduction of cellular TG accumulation (% of control) [1] | Activity on LDLR mRNA expression (Fold of control) [2] | Activity on DiI-LDL uptake ([3]; A, compound dose ≦10 μM) | Activity on DiI-LDL uptake ([3]; B, compound dose ≦40 μM)
1 | CCOC(=O)COc1c(OC)ccc2c1CN1CCc3cc4c(cc3C1C2)OCO4 (stereo not drawn) [Compound 83, 2-[10-methoxy-5,8,13,13a-tetrahydro-6H-[1,3]dioxolo[4,5-g]isoquino[3,2-a]isoquinoline-9-yl]-acetic esate] | 63.0 ± 0.90 % of control |  |  | 
2 | COc1ccc2c(c1OS(=O)(=O)c1ccc(C(C)(C)C)cc1)CN1CCc3cc4c(cc3C1C2)OCO4 (stereo not drawn) [Compound 38, 10-methoxy-5,6,7,8,13,13a-hexahydro-2H-1,3-dioxolano[4,5-g]isoquinolino[3,2-a]isoquinolin-9-yl 4-(tert-butyl)benzenesulfonate] |  | 1.82 ± 0.10 Fold of control | ++ | 
3 | COc1ccc2c(c1OC)C(CC(C)=O)N1CCc3cc4c(cc3C1=C2)OCO4 (stereo not drawn) [Compound 30, 1-(9,10-dimethoxy-5,6,7,8-tetrahydro-2H-1,3-dioxolano[4,5-g]isoquinolino[3,2-a]isoquinolin-8-yl)acetone] |  | 1.47 ± 0.13 Fold of control | + | 
4 | COc1ccc2c(c1OC)CN1CCc3cc4c(cc3C1C2Cc1ccccc1)OCO4 (stereo not drawn) [Compound 1, 9,10-dimethoxy-13-benzyl-5,6,7,8,13,13a-hexahydro-2H-1,3-dioxolano[4,5-g]isoquinolino[3,2-a]isoquinoline] |  | 1.56 ± 0.86 Fold of control | + | 
5 | COc1ccc2c(c1OCCO)CN1CCc3cc4c(cc3C1C2)OCO4 (stereo not drawn) [Compound 82, 9-O-2-(1′-hydroxy-ethyl)-10-methoxy-5,8,13,13a-tetrahydro-6H-[1,3]dioxolo[4,5-g]isoquino[3,2-a]isoquinoline] | 53.2 ± 21.3 % of control |  |  | 
6 | COc1cc(NC(=O)Oc2c(OC)ccc3c2CN2CCc4cc5c(cc4C2C3)OCO5)cc(OC)c1 (stereo not drawn) [Compound 45, N-(3,5-dimethoxyphenyl)(10-methoxy(5,6,7,8,13,13a-hexahydro-2H-1,3-dioxolano[4,5-g]isoquinolino[3,2-a]isoquinolin-9-yloxy))carboxamide] |  | 2.09 ± 0.11 Fold of control | ++ | 
7 | COc1ccc2c(c1OC(=O)Nc1ccc(OC(F)(F)F)cc1)CN1CCc3cc4c(cc3C1C2)OCO4 (stereo not drawn) [Compound 44, (10-methoxy(5,6,7,8,13,13a-hexahydro-2H-1,3-dioxolano[4,5-g]isoquinolino[3,2-a]isoquinolin-9-yloxy))-N-[4-(trifluoromethoxy)phenyl] carboxamide] |  | 2.20 ± 0.06 Fold of control | ++ | 
8 | COc1ccc2c(c1O)CN1CCc3cc4c(cc3C1C2)OCO4 (stereo not drawn) [Compound 34, 10-methoxy-5,6,7,8,13,13a-hexahydro-2H-1,3-dioxolano[4,5-g]isoquinolino[3,2-a]isoquinoline-9-ol] |  | 1.76 ± 0.17 Fold of control | ++ | 
9 | COc1ccc2c(c1OCc1ccccc1[N+](=O)[O-])CN1CCc3cc4c(cc3C1C2)OCO4 (stereo not drawn) [Compound 26, 10-methoxy-9-[(2-nitrophenyl)methoxy]-5,6,7,8,13,13a-hexahydro-2H-1,3-dioxolano[4,5-g]isoquinolino[3,2-a]isoquinoline] |  | 1.29 ± 0.10 Fold of control | ++ | 
10 | COc1ccc2c(c1OS(=O)(=O)c1ccccc1C)CN1CCc3cc4c(cc3C1C2)OCO4 (stereo not drawn) [Compound 50, 10-methoxy-5,6,7,8,13,13a-hexahydro-2H-1,3-dioxolano[4,5-g]isoquinolino[3,2-a]isoquinolin-9-yl 2-methylbenzenesulfonate] |  | 4.74 ± 0.96 Fold of control | +++ | 
11 | COc1ccc2c(c1OS(=O)(=O)c1cccs1)CN1CCc3cc4c(cc3C1C2)OCO4 (stereo not drawn) [Compound 56, 10-methoxy-5,6,7,8,13,13a-hexahydro-2H-1,3-dioxolano[4,5-g]isoquinolino[3,2-a]isoquinolin-9-yl thiophene-2-sulfonate] |  | 3.18 ± 0.63 Fold of control | +++ | 
12 | COc1ccc2c(c1OC(=O)Nc1cccc(C)c1)CN1CCc3cc4c(cc3C1C2)OCO4 (stereo not drawn) [Compound 46, (10-methoxy(5,6,7,8,13,13a-hexahydro-2H-1,3-dioxolano[4,5-g]isoquinolino[3,2-a]isoquinolin-9-yloxy))-N-(3-methylphenyl)carboxamide] |  | 1.80 ± 0.16 Fold of control | ++ | 
13 | COc1ccc2c(c1OC(=O)N(C)C)CN1CCc3cc4c(cc3C1C2)OCO4 (stereo not drawn) [Compound 43, (10-methoxy(5,6,7,8,13,13a-hexahydro-2H-1,3-dioxolano[4,5-g]isoquinolino[3,2-a]isoquinolin-9-yloxy))-N,N-dimethylcarboxamide] |  | 1.95 ± 0.18 Fold of control | ++ | 
14 | COc1cc2c(cc1OC)C1Cc3cccc(OC)c3CN1CC2 (stereo not drawn) [Compound 22, 2,3,9-trimethoxy-5,6,7,8,13,13a-hexahydroisoquinolino[3,2-a]isoquinoline] | 53.35 ± 12.68 % of control |  |  | 
15 | COc1ccc2c(c1OC(=O)NC(C)C)CN1CCc3cc4c(cc3C1C2)OCO4 (stereo not drawn) [Compound 41, (10-methoxy(5,6,7,8,13,13a-hexahydro-2H-1,3-dioxolano[4,5-g]isoquinolino[3,2-a]isoquinolin-9-yloxy))-N-(methylethyl)carboxamide] |  | 1.60 ± 0.03 Fold of control | ++ | 
16 | COc1ccc2cc3[n+](cc2c1OC)CCc1cc2c(cc1-3)OCO2 [Berberine, reference compound] | 70.9 ± 5.4 % of control | 1.30 ± 0.11 Fold of control |  | +
